The compounds below were run against T1, human Werner helicase (WRN-BV08, Uniprot Q14191, amino acids 517-1235 with L1074F point mutation) (Homo sapiens, UniProt Q14191, L1074F) (assay: WRN (BV08) ADP-Glo Assay). Conditions: 0.15 nM WRN, 5 μM ATP, 0.1 nM DNA duplex, 15 min preincubation, 60 min at 25° C., pH 7.5, 1% DMSO; read-out: ADP-Glo_hWRN_IC50.
T1 construct: Uniprot Q14191, amino acids 517-1235 with L1074F point mutation; TEV-cleavable 8×His (C, cleaved yes); made in house; host or cells: Sf9 insect cells (baculovirus)
T1 sequence (Q14191 with tags, fused parts or gaps L1074F limits assumed): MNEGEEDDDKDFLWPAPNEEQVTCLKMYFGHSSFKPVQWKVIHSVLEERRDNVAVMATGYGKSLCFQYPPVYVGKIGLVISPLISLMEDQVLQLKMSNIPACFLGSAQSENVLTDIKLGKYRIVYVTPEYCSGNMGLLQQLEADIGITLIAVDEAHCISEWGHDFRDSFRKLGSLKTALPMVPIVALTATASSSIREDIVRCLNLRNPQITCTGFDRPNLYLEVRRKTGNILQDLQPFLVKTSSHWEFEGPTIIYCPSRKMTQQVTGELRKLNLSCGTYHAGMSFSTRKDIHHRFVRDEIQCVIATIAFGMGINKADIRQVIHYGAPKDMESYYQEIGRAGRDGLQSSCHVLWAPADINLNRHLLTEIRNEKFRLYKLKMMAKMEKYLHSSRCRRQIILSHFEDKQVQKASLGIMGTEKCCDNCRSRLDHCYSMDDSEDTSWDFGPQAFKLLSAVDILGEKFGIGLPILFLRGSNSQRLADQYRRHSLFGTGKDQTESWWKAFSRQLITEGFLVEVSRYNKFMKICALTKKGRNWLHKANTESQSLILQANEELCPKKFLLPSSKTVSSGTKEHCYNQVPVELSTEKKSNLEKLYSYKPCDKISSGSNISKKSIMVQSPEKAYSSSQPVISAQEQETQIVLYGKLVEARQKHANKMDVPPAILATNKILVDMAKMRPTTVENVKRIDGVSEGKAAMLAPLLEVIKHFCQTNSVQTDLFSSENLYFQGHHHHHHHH
Format: biochemical
How it was run: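 WRN 0.15 nM + cpd, 15 min 25 °C; add 5 μM ATP / 0.1 nM annealed DNA duplex; 60 min 25 °C; ADP-Glo stop, RLU. Buffer 20 mM Bicine pH 7.5, 1 mM MgCl2, 10 mM KCl, 1 mM TCEP. IC50, 4-parameter fit.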

SMILES | IC50
O=C(Cc1ccc(-n2cccc2)cc1)N(c1c[nH]c2ncc(F)cc12)C1C=CS(=O)(=O)C1 (centres unmarked) [I-479, N-(1,1-dioxo-2,3-dihydro-1lambda6-thiophen-3-yl)-N-{5-fluoro-1H-pyrrolo[2,3-b]pyridin-3-yl}-2-[4-(1H-pyrrol-1-yl)phenyl]acetamide] | > 50 µM
Cn1cc(CN(C(=O)Cc2ccc(-n3cccc3)cc2)C2C=CS(=O)(=O)C2)cn1 (centres unmarked) [I-481, N-(1,1-dioxo-2,3-dihydro-1lambda6-thiophen-3-yl)-N-[(1-methyl-1H-pyrazol-4-yl)methyl]-2-[4-(1H-pyrrol-1-yl)phenyl]acetamide] | > 50 µM
O=C(Cc1ccc(N2CC(F)(F)C2)cc1)N(Cc1ccncc1)C1C=CS(=O)(=O)C1 (centres unmarked) [I-482, 2-[4-(3,3-difluoroazetidin-1-yl)phenyl]-N-(1,1-dioxo-2,3-dihydro-1lambda6-thiophen-3-yl)-N-[(pyridin-4-yl)methyl]acetamide] | > 50 µM
O=C(Cc1ccc(-n2cccc2)cc1)N(Cc1ncccn1)C1C=CS(=O)(=O)C1 (centres unmarked) [I-483, N-(1,1-dioxo-2,3-dihydro-1lambda6-thiophen-3-yl)-N-[(pyrimidin-2-yl)methyl]-2-[4-(1H-pyrrol-1-yl)phenyl]acetamide] | > 50 µM
CCC(C(=O)N(Cc1ccncc1)C1C=CS(=O)(=O)C1)c1ccc(-n2cccc2)cc1 (centres unmarked) [I-484, N-(1,1-dioxo-2,3-dihydro-1lambda6-thiophen-3-yl)-N-[(pyridin-4-yl)methyl]-2-[4-(1H-pyrrol-1-yl)phenyl]butanamide] | > 50 µM
O=C(Cc1ccc(-n2cccc2)cc1)N(CC1CCOCC1)C1C=CS(=O)(=O)C1 (centres unmarked) [I-485, N-(1,1-dioxo-2,3-dihydro-1lambda6-thiophen-3-yl)-N-[(oxan-4-yl)methyl]-2-[4-(1H-pyrrol-1-yl)phenyl]acetamide] | > 50 µM
O=C(c1ccc(-n2cccc2)cc1)N(Cc1ccccc1)C1C=CS(=O)(=O)C1 (centres unmarked) [I-486, N-benzyl-N-(1,1-dioxo-2,3-dihydro-1lambda6-thiophen-3-yl)-4-(1H-pyrrol-1-yl)benzamide] | > 50 µM
O=C(c1ccc(-c2ccccc2)cn1)N(Cc1ccccc1)C1C=CS(=O)(=O)C1 (centres unmarked) [I-487, N-benzyl-N-(1,1-dioxo-2,3-dihydro-1lambda6-thiophen-3-yl)-5-phenylpyridine-2-carboxamide] | > 50 µM
O=C(Cn1nnc2ccccc21)N(Cc1ccncc1)C1C=CS(=O)(=O)C1 (centres unmarked) [I-492, 2-(1H-1,2,3-benzotriazol-1-yl)-N-(1,1-dioxo-2,3-dihydro-1lambda6-thiophen-3-yl)-N-[(pyridin-4-yl)methyl]acetamide] | > 50 µM
O=C(Cc1c[nH]c2ccccc12)N(Cc1ccncc1)C1C=CS(=O)(=O)C1 (centres unmarked) [I-493, N-(1,1-dioxo-2,3-dihydro-1lambda6-thiophen-3-yl)-2-(1H-indol-3-yl)-N-[(pyridin-4-yl)methyl]acetamide] | > 50 µM
O=C(Cc1ccc2c(c1)OCO2)N(Cc1ccncc1)C1C=CS(=O)(=O)C1 (centres unmarked) [I-494, 2-(2H-1,3-benzodioxol-5-yl)-N-(1,1-dioxo-2,3-dihydro-1lambda6-thiophen-3-yl)-N-[(pyridin-4-yl)methyl]acetamide] | > 50 µM
O=C(CCc1cc2ccccc2s1)N(Cc1ccncc1)C1C=CS(=O)(=O)C1 (centres unmarked) [I-495, 3-(1-benzothiophen-2-yl)-N-(1,1-dioxo-2,3-dihydro-1lambda6-thiophen-3-yl)-N-[(pyridin-4-yl)methyl]propanamide] | > 50 µM
O=C(CCc1nc(-c2ccccc2F)no1)N(Cc1ccncc1)C1C=CS(=O)(=O)C1 (centres unmarked) [I-496, N-(1,1-dioxo-2,3-dihydro-1lambda6-thiophen-3-yl)-3-[3-(2-fluorophenyl)-1,2,4-oxadiazol-5-yl]-N-[(pyridin-4-yl)methyl]propanamide] | > 50 µM
O=C(Cc1ccc(-n2cccc2)cc1)N(Cc1cccc2[nH]ccc12)C1C=CS(=O)(=O)C1 (centres unmarked) [I-497, N-(1,1-dioxo-2,3-dihydro-1lambda6-thiophen-3-yl)-N-[(1H-indol-4-yl)methyl]-2-[4-(1H-pyrrol-1-yl)phenyl]acetamide] | > 50 µM
O=C(Cc1ccc(-n2cccc2)cc1)N(Cc1ccc2[nH]ccc2c1)C1C=CS(=O)(=O)C1 (centres unmarked) [I-498, N-(1,1-dioxo-2,3-dihydro-1lambda6-thiophen-3-yl)-N-[(1H-indol-5-yl)methyl]-2-[4-(1H-pyrrol-1-yl)phenyl]acetamide] | > 50 µM
O=C(Cc1ccc(-n2cccc2)cc1)N(Cc1ccc2cc[nH]c2c1)C1C=CS(=O)(=O)C1 (centres unmarked) [I-499, N-(1,1-dioxo-2,3-dihydro-1lambda6-thiophen-3-yl)-N-[(1H-indol-6-yl)methyl]-2-[4-(1H-pyrrol-1-yl)phenyl]acetamide] | > 50 µM
O=C(CCCc1c[nH]c2ccccc12)N(Cc1ccncc1)C1C=CS(=O)(=O)C1 (centres unmarked) [I-500, N-(1,1-dioxo-2,3-dihydro-1lambda6-thiophen-3-yl)-4-(1H-indol-3-yl)-N-[(pyridin-4-yl)methyl]butanamide] | > 50 µM
O=C(Cc1ccc(OCc2ccccc2)cc1)N(Cc1ccncc1)C1C=CS(=O)(=O)C1 (centres unmarked) [I-501, 2-[4-(benzyloxy)phenyl]-N-(1,1-dioxo-2,3-dihydro-1lambda6-thiophen-3-yl)-N-[(pyridin-4-yl)methyl]acetamide] | > 50 µM
O=C(CCn1ccc2ccccc21)N(Cc1ccncc1)C1C=CS(=O)(=O)C1 (centres unmarked) [I-502, N-(1,1-dioxo-2,3-dihydro-1lambda6-thiophen-3-yl)-3-(1H-indol-1-yl)-N-[(pyridin-4-yl)methyl]propanamide] | > 50 µM
O=C(Cc1ccc(Oc2ccccc2)cc1)N(Cc1ccncc1)C1C=CS(=O)(=O)C1 (centres unmarked) [I-503, N-(1,1-dioxo-2,3-dihydro-1lambda6-thiophen-3-yl)-2-(4-phenoxyphenyl)-N-[(pyridin-4-yl)methyl]acetamide] | > 50 µM
O=C(Cc1ccc2cc[nH]c2c1)N(Cc1ccncc1)C1C=CS(=O)(=O)C1 (centres unmarked) [I-506, N-(1,1-dioxo-2,3-dihydro-1lambda6-thiophen-3-yl)-2-(1H-indol-6-yl)-N-[(pyridin-4-yl)methyl]acetamide] | > 50 µM
O=C(CCc1ccc(C(F)(F)F)cc1)N(Cc1ccncc1)C1C=CS(=O)(=O)C1 (centres unmarked) [I-507, N-(1,1-dioxo-2,3-dihydro-1lambda6-thiophen-3-yl)-N-[(pyridin-4-yl)methyl]-3-[4-(trifluoromethyl)phenyl]propanamide] | > 50 µM
O=C(CCc1cccc(OC(F)(F)F)c1)N(Cc1ccncc1)C1C=CS(=O)(=O)C1 (centres unmarked) [I-508, N-(1,1-dioxo-2,3-dihydro-1lambda6-thiophen-3-yl)-N-[(pyridin-4-yl)methyl]-3-[3-(trifluoromethoxy)phenyl]propanamide] | > 50 µM
O=C(Cc1cccc(Oc2ccccc2)c1)N(Cc1ccncc1)C1C=CS(=O)(=O)C1 (centres unmarked) [I-510, N-(1,1-dioxo-2,3-dihydro-1lambda6-thiophen-3-yl)-2-(3-phenoxyphenyl)-N-[(pyridin-4-yl)methyl]acetamide] | > 50 µM
COc1ccc2cc(CC(=O)N(Cc3ccncc3)C3C=CS(=O)(=O)C3)ccc2c1 (centres unmarked) [I-511, N-(1,1-dioxo-2,3-dihydro-1lambda6-thiophen-3-yl)-2-(6-methoxynaphthalen-2-yl)-N-[(pyridin-4-yl)methyl]acetamide] | > 50 µM

Same assay, conditions: ADP-Glo_hWRN_IC50, 0.15 nM WRN, 5 μM ATP, 0.1 nM DNA duplex, 15 min preincubation, 60 min at 25° C., pH 7.5, 1% DMSO

SMILES | IC50
O=C(CN1CC=C(c2ccccc2)CC1)N(Cc1ccncc1)C1C=CS(=O)(=O)C1 (centres unmarked) [I-478, N-(1,1-dioxo-2,3-dihydro-1lambda6-thiophen-3-yl)-2-(4-phenyl-1,2,3,6-tetrahydropyridin-1-yl)-N-[(pyridin-4-yl)methyl]acetamide] | > 50 µM
